Test results published in paper PMC7655109, “High-resolution structures of multiple 5-HT3AR-setron complexes reveal a novel mechanism of competitive inhibition” (eLife, 2020).
Values belong to the compound of their own block, whether it stands above or below them.

Legend:
Type in all cases: cell-based
[1] = target: T1, 5-HT3AR (serotonin (3) receptor subunit A, homopentamer) (Mus musculus, UniProt P23979); experiment: cryo-EM structure ([…] Å); also TEVC inhibition of serotonin currents in oocytes
T1 construct: gene Htr3a; full-length, C-terminal 1D4-tag and four N-terminal strep-tags; modelled Thr7–Leu335 and Leu397–Ser462
T1 sequence (P23979 34-483 isoform P23979-2): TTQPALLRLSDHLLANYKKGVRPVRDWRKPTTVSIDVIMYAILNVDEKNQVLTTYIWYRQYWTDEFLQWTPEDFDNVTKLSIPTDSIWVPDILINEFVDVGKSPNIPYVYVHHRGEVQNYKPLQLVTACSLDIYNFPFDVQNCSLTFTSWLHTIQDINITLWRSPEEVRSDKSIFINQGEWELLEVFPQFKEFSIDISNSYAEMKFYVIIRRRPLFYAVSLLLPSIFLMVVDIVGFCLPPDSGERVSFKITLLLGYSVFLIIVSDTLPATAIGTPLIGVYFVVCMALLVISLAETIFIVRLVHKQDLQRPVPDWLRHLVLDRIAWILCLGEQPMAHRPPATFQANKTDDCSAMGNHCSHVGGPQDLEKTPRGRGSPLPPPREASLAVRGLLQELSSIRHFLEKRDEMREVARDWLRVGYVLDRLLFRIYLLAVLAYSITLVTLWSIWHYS

[2] = target: T2, 5-HT3AR (serotonin (3) receptor subunit A, homopentamer) (Mus musculus, UniProt P23979); experiment: two-electrode voltage clamp in oocytes, inhibition of serotonin-induced current on co-application
T2 construct: gene Htr3a; 5-HT3AR expressed in Xenopus laevis oocytes
T2 sequence (P23979 24-489): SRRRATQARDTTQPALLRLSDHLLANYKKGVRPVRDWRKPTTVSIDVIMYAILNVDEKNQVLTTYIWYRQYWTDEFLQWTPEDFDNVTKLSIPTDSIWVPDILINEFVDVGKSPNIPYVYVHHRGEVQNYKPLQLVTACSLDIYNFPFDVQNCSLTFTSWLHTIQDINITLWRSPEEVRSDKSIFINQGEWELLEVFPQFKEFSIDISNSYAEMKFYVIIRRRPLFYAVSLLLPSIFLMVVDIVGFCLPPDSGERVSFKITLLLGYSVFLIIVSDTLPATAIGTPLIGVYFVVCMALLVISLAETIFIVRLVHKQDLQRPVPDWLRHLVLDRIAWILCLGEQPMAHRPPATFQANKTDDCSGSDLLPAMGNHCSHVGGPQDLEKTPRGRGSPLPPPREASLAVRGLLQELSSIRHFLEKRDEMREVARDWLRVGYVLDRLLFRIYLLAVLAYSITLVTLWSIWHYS

[3] = target: T1, 5-HT3AR (serotonin (3) receptor subunit A, homopentamer); experiment: cryo-EM structure ([…] Å); also TEVC inhibition of serotonin currents in oocytes; remark: listed apart in the source
[4] = target: T1, 5-HT3AR (serotonin (3) receptor subunit A, homopentamer); experiment: as above; remark: listed apart in the source

- potency for TEVC inhibition of serotonin currents [1]: ~ 0.1 nM
Structure (SMILES): Cc1[nH]cnc1CN1CCc2c(c3ccccc3n2C)C1=O [alosetron]

Structure (SMILES): CN1C2CCCC1CC(NC(=O)c1nn(C)c3ccccc13)C2 (stereo not shown) [granisetron]
- two-electrode voltage clamp in oocytes, inhibition of serotonin-induced current [2]: ~ 1 nM

- inhibition of serotonin currents in oocytes [3]: ~ 0.1 nM
Structure (SMILES): Cc1nccn1CC1CCc2c(c3ccccc3n2C)C1=O (stereo not shown) [ondansetron]

Structure (SMILES): O=C1c2cccc3c2[C@H](CCC3)CN1[C@@H]1CN2CCC1CC2 [palonosetron]
- cryo-EM structure (3.32 Å); also TEVC inhibition of serotonin currents in oocyte [4]: ~ 1 nM
